Measured values reported in patent US8580778B2, “Substituted dihydropyrazolones and their use” (Bayer Intellectual Property GmbH, priority 2008, dated 2013).
Counter-ions that a name gives are not always drawn.

The compounds below were run against HIF prolyl hydroxylase (assay: Inhibition of the activity of HIF prolyl hydroxylase (VBC complex binding test)). Conditions: cell lysate containing prolyl hydroxylase.
Type: biochemical
Method: 1.a) Inhibition of the Activity of HIF Prolyl Dydroxylase:
Hydroxylated HIF bonds specifically to the von Hippel-Lindau protein-elongin B-elongin C complex (VBC complex). This interaction occurs only if HIF is hydroxylated on a conserved prolyl radical. It is the basis for the biochemical determination of HIF prolyl hydroxylase activity. The test is carried out as described [Oehme F., Jonghaus W., Narouz-Ott L., Huetter J., Flamme I., Anal. Biochem. 330 (1), 74-80 (2004)]:
A clear 96-well microtiter plate coated with NeutrAvidin HBC (Pierce) is incubated with blocker casein for 30 minutes. The plate is then washed three times with 200 μl each time of wash buffer (50 mM Tris, pH 7.5, 100 mM NaCl, 10% (v/v) blocker casein, 0.05% (v/v) Tween 20) per well. The peptide biotin-DLDLEMLAPYIPMDDDFQL (Eurogentec, 4102 Seraing, Belgium) is added in a concentration of 400 nM in 100 μl wash buffer. This peptide serves as a substrate for the prolyl hydroxylation and is bonded to the microtiter plate. After incubation for 60 minutes, the plate is washed three times with wash buffer, incubated with 1 mM biotin in blocker casein for 30 minutes and then washed again three times with wash buffer.
To carry out the prolyl hydroxylase reaction, the peptide substrate bonded to the plate is incubated with a cell lysate containing prolyl hydroxylase for 1 to 60 minutes. The reaction takes place in 100 μl reaction buffer (20 mM Tris, pH 7.5, 5 mM KCl, 1.5 mM MgCl2, 1 μM-1 mM 2-oxoglutarate, 10 μM FeSO4, 2 mM ascorbate) at room temperature. The reaction mixture moreover contains various concentrations of the prolyl hydroxylase inhibitor to be tested. The test substance is preferably, but not exclusively, employed at concentrations of between 1 nM and 100 μM. The reaction is stopped by washing the plate three times with wash buffer.
For quantitative determination of the prolyl hydroxylation, a fusion protein which contains both thioredoxin from E. coli and the VBC complex in 80 μl bonding buffer (50 mM Tris, pH 7.5, 120 mM NaCl) is added. After 15 minutes, 10 μl of a solution of polyclonal anti-thioredoxin antibodies from rabbit in bonding buffer are added. After a further 30 minutes, 10 μl of a solution of anti-rabbit immunoglobulin coupled to horseradish peroxidase in bonding buffer are added. After incubation at room temperature for 30 minutes, the plate is washed three times with wash buffer in order to remove non-bonded VBC complex and antibodies. To determine the amount of bonded VBC complex, the plate is incubated with TMB for 15 minutes. The colour reaction is ended by addition of 100 μl 1 M sulphuric acid. The amount of bonded VBC complex is determined by measurement of the optical density at 450 nm. It is proportional to the amount of hydroxylated proline in the peptide substrate.
Alternatively, a VBC complex coupled to europium (Perkin Elmer) can be used for detection of the prolyl hydroxylation. In this case, the amount of bonded VBC complex is determined by the fluorescence with respect to time. The use of VBC complex labelled with [^35S]-methionine is moreover possible. For this, the radioactively labelled VBC complex can be prepared by in vitro transcription-translation in reticulocyte lysate.
N#Cc1cn(-c2c[nH]n(-c3cc(N4CC(F)(F)C4)ncn3)c2=O)nn1 [Example 21, 1-{2-[6-(3,3-Difluoroazetidin-1-yl)pyrimidin-4-yl]-3-oxo-2,3-dihydro-1H-pyrazol-4-yl}-1H-1,2,3-triazole-4-carbonitrile] showed an IC50 of 70 nM.
Work on O=C(O)C1CN(c2cc(-n3[nH]cc(-n4ccnc4)c3=O)ncn2)C1 [Example 5, 1-{6-[4-(1H-Imidazol-1-yl)-5-oxo-2,5-dihydro-1H-pyrazol-1-yl]pyrimidin-4-yl}azetidine-3-carboxylic acid] yielded an IC50 of 540 nM.
With N#Cc1cn(-c2c[nH]n(-c3cc(N4CCC(F)(F)C4)ncn3)c2=O)nn1 [Example 17, 1-{2-[6-(3,3-Difluoropyrrolidin-1-yl)pyrimidin-4-yl]-3-oxo-2,3-dihydro-1H-pyrazol-4-yl}-1H-1,2,3-triazole-4-carbonitrile] the IC50 was 130 nM.
O=c1c(-n2ccnn2)c[nH]n1-c1cc(N2CCN(C3CCC3)CC2)ncn1 [Example 2, 2-[6-(4-Cyclobutylpiperazin-1-yl)pyrimidin-4-yl]-4-(1H-1,2,3-triazol-1-yl)-1,2-dihydro-3H-pyrazol-3-one] showed an IC50 of 880 nM.
Compound N#Cc1cn(-c2c[nH]n(-c3cc(N4CCCCO4)ncn3)c2=O)nn1 [Example 29, 1-{2-[6-(1,2-Oxazinan-2-yl)pyrimidin-4-yl]-3-oxo-2,3-dihydro-1H-pyrazol-4-yl}-1H-1,2,3-triazole-4-carbonitrile] has an IC50 of 170 nM.
For N#Cc1cn(-c2c[nH]n(-c3cc(N4CCCOCC4)ncn3)c2=O)cn1 [Example 25, 1-{2-[6-(1,4-Oxazepan-4-yl)pyrimidin-4-yl]-3-oxo-2,3-dihydro-1H-pyrazol-4-yl}-1H-imidazole-4-carbonitrile], the IC50 was 180 nM.
In the case of N#Cc1cn(-c2c[nH]n(-c3cc(N4CCCOCC4)ncn3)c2=O)nn1 [Example 26, 1-{2-[6-(1,4-Oxazepan-4-yl)pyrimidin-4-yl]-3-oxo-2,3-dihydro-1H-pyrazol-4-yl}-1H-1,2,3-triazole-4-carbonitrile], the IC50 is reported as 380 nM.
With CN(C)C1CN(c2cc(-n3[nH]cc(-n4ccnn4)c3=O)ncn2)C1 [Example 9, 2-{6-[3-(Dimethylamino)azetidin-1-yl]pyrimidin-4-yl}-4-(1H-1,2,3-triazol-1-yl)-1,2-dihydro-3H-pyrazol-3-one dihydrochloride] the IC50 was 760 nM.
